From US20230085307A1, “PYRIDAZINONE COMPOUND AND HERBICIDE” (NISSAN CHEMICAL CORPORATION, priority 2019, published 2023)

Test system: redroot pigweed
Test: Test Example 4: herbicidal effect by soil treatment (Table 19, symbol N)
Format: in vivo, redroot pigweed (Amaranthus retroflexus)
Conditions: amount of applied herbicide 320 g/ha
How it was run: (§1)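 Seeds were sown in sterilized diluvial soil and covered with about 1.5 cm of soil. An emulsion formulation diluted with water to a predetermined herbicide amount was sprayed evenly onto the soil surface. Plants grew in a greenhouse at 25° C. to 30° C., and the effect was scored three weeks after application using criteria from an earlier test.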

SMILES | herbicidal effect on N: redroot pigweed
Cc1nn(C)c(=O)c(-c2c(-c3ccc(OC(F)F)cc3)sc3ccc(F)cc23)c1OC(=S)Sc1ccccc1 [2-298] | 3 (Herbicidal rate of 40% or more and less than 70%)
Cc1nn(C)c(=O)c(-c2c(-c3ccc(OC(F)F)cc3)sc3ccc(F)cc23)c1OCC(=O)c1ccccc1 [2-305] | 4 (Herbicidal rate of 70% or more and less than 90%)

Test system: oval-leafed pondweed
Test: Test Example 2: herbicidal activity, application during weed generation under submerged conditions (Table 17, symbol C)
Format: in vivo, oval-leafed pondweed (Monochoria vaginalis)
Conditions: AAH 320 g/ha; application during weed generation, submerged conditions
How it was run: (§2)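 Mixed weed seedlings in alluvial soil under a 4 cm water layer, greenhouse-grown at 25–30° C. Compound given as a diluted emulsion into the floodwater at the 1–2 leaf stage; response graded after three weeks.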

SMILES | herbicidal effect rating, C: oval-leafed pondweed
Cc1nn(C)c(=O)c(-c2c(-c3ccc(OC(F)F)cc3)sc3ccc(F)cc23)c1OC(=S)Sc1ccccc1 [2-298] | 0 (Herbicidal rate of 5% or less (almost no effect))
Cc1nn(C)c(=O)c(-c2c(-c3ccc(OC(F)F)cc3)sc3ccc(F)cc23)c1OCC(=O)c1ccccc1 [2-305] | 0 (Herbicidal rate of 5% or less (almost no effect))

Test system: wild oat
Test: Test Example 5: herbicidal effect by foliage application, plastic box (Table 20, symbol I)
Format: in vivo, wild oat (Avena fatua)
Conditions: foliage application, AAH 320 g/ha, evaluated three weeks after application
How it was run: (§3)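 Plants sown in sterilized diluvial soil and grown 14 days in a greenhouse at 25° C to 30° C, then sprayed on the foliage with the compound's emulsion diluted in water to a predetermined herbicide amount. Injury to weeds and crops scored three weeks after application on a visual rating scale.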

SMILES | I: wild oat, herbicidal effect (criteria 0-5)
Cc1nn(C)c(=O)c(-c2c(-c3ccc(OC(F)F)cc3)sc3ccc(F)cc23)c1OC(=S)Sc1ccccc1 [2-298] | 4 (Herbicidal rate of 70% or more and less than 90%)
Cc1nn(C)c(=O)c(-c2c(-c3ccc(OC(F)F)cc3)sc3ccc(F)cc23)c1OCC(=O)c1ccccc1 [2-305] | 1 (Herbicidal rate of 5% or more and less than 20%)

Test system: barnyard grass
Test: Test Example 4: herbicidal effect by soil treatment (Table 19, symbol H)
Format: in vivo, barnyard grass (Echinochloa crus-galli)
Conditions: amount of applied herbicide 320 g/ha
How it was run: as §1

SMILES | herbicidal effect on H: barnyard grass
Cc1nn(C)c(=O)c(-c2c(-c3ccc(OC(F)F)cc3)sc3ccc(F)cc23)c1OC(=S)Sc1ccccc1 [2-298] | 0 (Herbicidal rate of 5% or less (almost no effect))
Cc1nn(C)c(=O)c(-c2c(-c3ccc(OC(F)F)cc3)sc3ccc(F)cc23)c1OCC(=O)c1ccccc1 [2-305] | 0 (Herbicidal rate of 5% or less (almost no effect))

Test system: green foxtail
Test: Test Example 4: herbicidal effect by soil treatment (Table 19, symbol G)
Format: in vivo, green foxtail (Setaria viridis)
Conditions: amount of applied herbicide 320 g/ha
How it was run: as §1

SMILES | herbicidal effect on G: green foxtail
Cc1nn(C)c(=O)c(-c2c(-c3ccc(OC(F)F)cc3)sc3ccc(F)cc23)c1OC(=S)Sc1ccccc1 [2-298] | 0 (Herbicidal rate of 5% or less (almost no effect))
Cc1nn(C)c(=O)c(-c2c(-c3ccc(OC(F)F)cc3)sc3ccc(F)cc23)c1OCC(=O)c1ccccc1 [2-305] | 0 (Herbicidal rate of 5% or less (almost no effect))

Test system: chickweed
Test: Test Example 5: herbicidal effect by foliage application, plastic box (Table 20, symbol P)
Format: in vivo, common chickweed (Stellaria media)
Conditions: foliage application, AAH 320 g/ha, evaluated three weeks after application
How it was run: as §3

SMILES | P: chickweed, herbicidal effect (criteria 0-5)
Cc1nn(C)c(=O)c(-c2c(-c3ccc(OC(F)F)cc3)sc3ccc(F)cc23)c1OC(=S)Sc1ccccc1 [2-298] | 5 (Herbicidal rate of 90% or more (almost completely withered))
Cc1nn(C)c(=O)c(-c2c(-c3ccc(OC(F)F)cc3)sc3ccc(F)cc23)c1OCC(=O)c1ccccc1 [2-305] | 5 (Herbicidal rate of 90% or more (almost completely withered))

Test system: green foxtail
Test: Test Example 5: herbicidal effect by foliage application, plastic box (Table 20, symbol G)
Format: in vivo, green foxtail (Setaria viridis)
Conditions: foliage application, AAH 320 g/ha, evaluated three weeks after application
How it was run: as §3

SMILES | G: green foxtail, herbicidal effect (criteria 0-5)
Cc1nn(C)c(=O)c(-c2c(-c3ccc(OC(F)F)cc3)sc3ccc(F)cc23)c1OC(=S)Sc1ccccc1 [2-298] | 5 (Herbicidal rate of 90% or more (almost completely withered))
Cc1nn(C)c(=O)c(-c2c(-c3ccc(OC(F)F)cc3)sc3ccc(F)cc23)c1OCC(=O)c1ccccc1 [2-305] | 5 (Herbicidal rate of 90% or more (almost completely withered))

Test system: persian speedwell
Test: Test Example 5: herbicidal effect by foliage application, plastic box (Table 20, symbol R)
Format: in vivo, Persian speedwell (Veronica persica)
Conditions: foliage application, AAH 320 g/ha, evaluated three weeks after application
How it was run: as §3

SMILES | R: persian speedwell, herbicidal effect (criteria 0-5)
Cc1nn(C)c(=O)c(-c2c(-c3ccc(OC(F)F)cc3)sc3ccc(F)cc23)c1OC(=S)Sc1ccccc1 [2-298] | 5 (Herbicidal rate of 90% or more (almost completely withered))
Cc1nn(C)c(=O)c(-c2c(-c3ccc(OC(F)F)cc3)sc3ccc(F)cc23)c1OCC(=O)c1ccccc1 [2-305] | 5 (Herbicidal rate of 90% or more (almost completely withered))

Test system: Japanese bulrush
Test: Test Example 2: herbicidal activity, application during weed generation under submerged conditions (Table 17, symbol B)
Format: in vivo, Japanese bulrush (Schoenoplectus juncoides)
Conditions: AAH 320 g/ha; application during weed generation, submerged conditions
How it was run: as §2

SMILES | herbicidal effect rating, B: Japanese bulrush
Cc1nn(C)c(=O)c(-c2c(-c3ccc(OC(F)F)cc3)sc3ccc(F)cc23)c1OC(=S)Sc1ccccc1 [2-298] | 3 (Herbicidal rate of 40% or more and less than 70%)
Cc1nn(C)c(=O)c(-c2c(-c3ccc(OC(F)F)cc3)sc3ccc(F)cc23)c1OCC(=O)c1ccccc1 [2-305] | 3 (Herbicidal rate of 40% or more and less than 70%)

Test system: southern crabgrass
Test: Test Example 5: herbicidal effect by foliage application, plastic box (Table 20, symbol F)
Format: in vivo, southern crabgrass (Digitaria ciliaris)
Conditions: foliage application, AAH 320 g/ha, evaluated three weeks after application
How it was run: as §3

SMILES | F: southern crabgrass, herbicidal effect (criteria 0-5)
Cc1nn(C)c(=O)c(-c2c(-c3ccc(OC(F)F)cc3)sc3ccc(F)cc23)c1OC(=S)Sc1ccccc1 [2-298] | 3 (Herbicidal rate of 40% or more and less than 70%)
Cc1nn(C)c(=O)c(-c2c(-c3ccc(OC(F)F)cc3)sc3ccc(F)cc23)c1OCC(=O)c1ccccc1 [2-305] | 1 (Herbicidal rate of 5% or more and less than 20%)

Test system: wild oat
Test: Test Example 4: herbicidal effect by soil treatment (Table 19, symbol I)
Format: in vivo, wild oat (Avena fatua)
Conditions: amount of applied herbicide 320 g/ha
How it was run: as §1

SMILES | herbicidal effect on I: wild oat
Cc1nn(C)c(=O)c(-c2c(-c3ccc(OC(F)F)cc3)sc3ccc(F)cc23)c1OC(=S)Sc1ccccc1 [2-298] | 0 (Herbicidal rate of 5% or less (almost no effect))
Cc1nn(C)c(=O)c(-c2c(-c3ccc(OC(F)F)cc3)sc3ccc(F)cc23)c1OCC(=O)c1ccccc1 [2-305] | 0 (Herbicidal rate of 5% or less (almost no effect))

Test system: windgrass
Test: Test Example 5: herbicidal effect by foliage application, plastic box (Table 20, symbol L)
Format: in vivo, windgrass (Apera spica-venti)
Conditions: foliage application, AAH 320 g/ha, evaluated three weeks after application
How it was run: as §3

SMILES | L: windgrass, herbicidal effect (criteria 0-5)
Cc1nn(C)c(=O)c(-c2c(-c3ccc(OC(F)F)cc3)sc3ccc(F)cc23)c1OC(=S)Sc1ccccc1 [2-298] | 0 (Herbicidal rate of 5% or less (almost no effect))
Cc1nn(C)c(=O)c(-c2c(-c3ccc(OC(F)F)cc3)sc3ccc(F)cc23)c1OCC(=O)c1ccccc1 [2-305] | 1 (Herbicidal rate of 5% or more and less than 20%)

Test system: chickweed
Test: Test Example 4: herbicidal effect by soil treatment (Table 19, symbol P)
Format: in vivo, common chickweed (Stellaria media)
Conditions: amount of applied herbicide 320 g/ha
How it was run: as §1

SMILES | herbicidal effect on P: chickweed
Cc1nn(C)c(=O)c(-c2c(-c3ccc(OC(F)F)cc3)sc3ccc(F)cc23)c1OC(=S)Sc1ccccc1 [2-298] | 0 (Herbicidal rate of 5% or less (almost no effect))
Cc1nn(C)c(=O)c(-c2c(-c3ccc(OC(F)F)cc3)sc3ccc(F)cc23)c1OCC(=O)c1ccccc1 [2-305] | 1 (Herbicidal rate of 5% or more and less than 20%)

Test system: Japanese bulrush
Test: Test Example 1: herbicidal activity, application before weed generation under submerged conditions (Table 16, symbol B)
Format: in vivo, Japanese bulrush (Schoenoplectus juncoides)
Conditions: 320 g/ha applied herbicide
How it was run: (§4)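 Submerged Wagner pots (alluvial soil, 4 cm water) sown with weed seeds and planted with 2.5-leaf rice seedlings; emulsifiable concentrate diluted in water applied to water surface on sowing day. Held in greenhouse at 25-30 °C; injury scored 0-5 by herbicidal rate after three weeks.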

SMILES | Herbicidal effect on B: Japanese bulrush (grade 0-5)
Cc1nn(C)c(=O)c(-c2c(-c3ccc(OC(F)F)cc3)sc3ccc(F)cc23)c1OC(=S)Sc1ccccc1 [2-298] | 3 (Herbicidal rate of 40% or more and less than 70%)
Cc1nn(C)c(=O)c(-c2c(-c3ccc(OC(F)F)cc3)sc3ccc(F)cc23)c1OCC(=O)c1ccccc1 [2-305] | 5 (Herbicidal rate of 90% or more (almost completely withered))

Test system: barnyard grass
Test: Test Example 5: herbicidal effect by foliage application, plastic box (Table 20, symbol H)
Format: in vivo, barnyard grass (Echinochloa crus-galli)
Conditions: foliage application, AAH 320 g/ha, evaluated three weeks after application
How it was run: as §3

SMILES | H: barnyard grass, herbicidal effect (criteria 0-5)
Cc1nn(C)c(=O)c(-c2c(-c3ccc(OC(F)F)cc3)sc3ccc(F)cc23)c1OC(=S)Sc1ccccc1 [2-298] | 5 (Herbicidal rate of 90% or more (almost completely withered))
Cc1nn(C)c(=O)c(-c2c(-c3ccc(OC(F)F)cc3)sc3ccc(F)cc23)c1OCC(=O)c1ccccc1 [2-305] | 5 (Herbicidal rate of 90% or more (almost completely withered))

Test system: oval-leafed pondweed
Test: Test Example 1: herbicidal activity, application before weed generation under submerged conditions (Table 16, symbol C)
Format: in vivo, oval-leafed pondweed (Monochoria vaginalis)
Conditions: 320 g/ha applied herbicide
How it was run: as §4

SMILES | Herbicidal effect on C: oval-leafed pondweed (grade 0-5)
Cc1nn(C)c(=O)c(-c2c(-c3ccc(OC(F)F)cc3)sc3ccc(F)cc23)c1OC(=S)Sc1ccccc1 [2-298] | 3 (Herbicidal rate of 40% or more and less than 70%)
Cc1nn(C)c(=O)c(-c2c(-c3ccc(OC(F)F)cc3)sc3ccc(F)cc23)c1OCC(=O)c1ccccc1 [2-305] | 2 (Herbicidal rate of 20% or more and less than 40%)
